Source: patent publication US20250320213A1, “Nitrogen-Containing Heterocyclic Compounds” (Pfizer Inc., priority 2024, published 2025)
Counter-ions that a name gives are not always drawn.

Key:
[1] = tested on: CCL17 secretion in peripheral human whole blood; experiment: Human Whole Blood (HWB) CCL17 TR-FRET Assay (IL-13 stimulated CCL17 secretion); format: cell-based; conditions: Homo sapiens, 48 h, inhibition of CCL17 secretion in human whole blood, 10 ng/mL IL13, 48 hours
Method in brief: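 IC50 comes from serum CCL17 measured by a TR-FRET sandwich assay (16 h at room temperature, 665/615 nm ratio). Beforehand, blood in sodium heparin was exposed to an 11-point, 3-fold compound series for 2 h at 37°C and then to 10 ng/mL IL-13 for 48 h.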

STAT6 = target: T1, STAT6 (Homo sapiens, UniProt P42226); experiment: STAT6 Reporter Luciferase Assay (IL-13 stimulated HaCaT keratinocyte NanoLuc reporter cells); format: cell-based; conditions: STAT6 NanoLuc luciferase reporter, IL-13 stimulated HaCaT keratinocyte cells; read-out: Reporter EC50
T1 construct: stably transfected HaCaT keratinocyte cell line, which expresses NanoLuc luciferase reporter gene under the transcriptional control of the STAT6 responsive promoter; endogenous in cells; host or cells: HaCaT keratinocyte reporter cell line (stably transfected with a NanoLuc reporter)
T1 sequence (P42226 1-847): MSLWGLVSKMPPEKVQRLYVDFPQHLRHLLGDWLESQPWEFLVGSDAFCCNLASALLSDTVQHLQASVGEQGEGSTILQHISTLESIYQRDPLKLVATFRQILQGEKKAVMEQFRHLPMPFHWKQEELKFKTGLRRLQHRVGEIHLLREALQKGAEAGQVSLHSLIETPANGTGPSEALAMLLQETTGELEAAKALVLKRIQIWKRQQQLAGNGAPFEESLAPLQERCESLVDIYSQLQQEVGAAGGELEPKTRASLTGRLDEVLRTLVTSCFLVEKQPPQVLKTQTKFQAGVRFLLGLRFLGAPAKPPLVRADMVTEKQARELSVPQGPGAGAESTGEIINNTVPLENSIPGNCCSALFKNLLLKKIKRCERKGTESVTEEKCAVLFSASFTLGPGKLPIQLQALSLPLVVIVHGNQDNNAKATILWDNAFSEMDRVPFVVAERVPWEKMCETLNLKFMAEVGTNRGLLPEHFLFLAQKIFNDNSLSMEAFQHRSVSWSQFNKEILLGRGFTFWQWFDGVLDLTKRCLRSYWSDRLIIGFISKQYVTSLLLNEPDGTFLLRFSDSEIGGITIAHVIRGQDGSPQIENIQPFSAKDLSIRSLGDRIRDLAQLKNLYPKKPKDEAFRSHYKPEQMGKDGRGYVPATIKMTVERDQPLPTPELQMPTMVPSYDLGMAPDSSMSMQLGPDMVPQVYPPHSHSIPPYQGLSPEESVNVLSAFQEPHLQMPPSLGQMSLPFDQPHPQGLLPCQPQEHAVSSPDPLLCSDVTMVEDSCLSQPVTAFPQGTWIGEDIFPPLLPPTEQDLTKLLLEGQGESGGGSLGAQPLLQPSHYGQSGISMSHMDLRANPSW
Method in brief: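 Stably transfected HaCaT cells carrying NanoLuc under the STAT6-responsive IL-13Ra2 promoter were pre-treated with compound (11-point, 4-fold series, duplicate) for 2 h at 37 °C, then stimulated with 0.12 nM IL-13 for 4 h. Nano-Glo luminescence was read after 15 min.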

| Compound | IC50 [1] | EC50 (STAT6) |
| --- | --- | --- |
| CC(C)n1nc(C(=O)NCc2ccc(-c3ncc[nH]3)cc2)c2c1CCN(c1ccc(C(=O)N(C)C)cn1)C2 [Example 11, N-(4-(1H-imidazol-2-yl)benzyl)-5-(5-(dimethylcarbamoyl)pyridin-2-yl)-1-isopropyl-4,5,6,7-tetrahydro-1H-pyrazolo[4,3-c]pyridine-3-carboxamide] | 205 nM | 16 nM |
| CN(C)C(=O)Nc1ccc(CNC(=O)c2nn(C)c3c2CN(c2ccc(C(=O)N(C)C)cn2)CC3)cc1 [Example 14, 5-(5-(dimethylcarbamoyl)pyridin-2-yl)-N-(4-(3,3-dimethylureido)benzyl)-1-methyl-4,5,6,7-tetrahydro-1H-pyrazolo[4,3-c]pyridine-3-carboxamide] | 260 nM | 29 nM |
| CNC(=O)c1ccc(CNC(=O)c2nn(C)c3c2CN(c2ccc(C(=O)N(C)C)cn2)CC3)cc1 [Example 15, 5-(5-(dimethylcarbamoyl)pyridin-2-yl)-1-methyl-N-(4-(methylcarbamoyl)benzyl)-4,5,6,7-tetrahydro-1H-pyrazolo[4,3-c]pyridine-3-carboxamide] | 1160 nM | 159 nM |
| CNC(=O)c1ccc(CNC(=O)c2nc(C3CC3)n3c2CN(c2ccc(C(=O)N(C)C)cn2)CC3)cc1 [Example 16, 3-cyclopropyl-7-(5-(dimethylcarbamoyl)pyridin-2-yl)-N-(4-(methylcarbamoyl)benzyl)-5,6,7,8-tetrahydroimidazo[1,5-a]pyrazine-1-carboxamide] | 791 nM | 261 nM |
| CN(C)C(=O)Nc1ccc(CNC(=O)c2ncn3c2CN(c2ccc(C(=O)N(C)C)cn2)CC3)cc1 [Example 17, 7-(5-(dimethylcarbamoyl)pyridin-2-yl)-N-(4-(3,3-dimethylureido)benzyl)-5,6,7,8-tetrahydroimidazo[1,5-a]pyrazine-1-carboxamide] | 291 nM | 322 nM |
| CN(C)C(=O)Nc1ccc(CNC(=O)c2n[nH]c3c2CN(c2ccc(C(=O)N(C)C)cn2)CC3)cc1 [Example 18, 5-(5-(Dimethylcarbamoyl)pyridin-2-yl)-N-(4-(3,3-dimethylureido)benzyl)-4,5,6,7-tetrahydro-1H-pyrazolo[4,3-c]pyridine-3-carboxamide] | 1380 nM | 1420 nM |
| CN(C)C(=O)Nc1ccc(CNC(=O)c2c3c(nn2C2CC2)CCN(c2ccc(C(=O)N(C)C)cn2)C3)cc1 [Example 19, 2-cyclopropyl-5-(5-(dimethylcarbamoyl)pyridin-2-yl)-N-(4-(3,3-dimethylureido)benzyl)-4,5,6,7-tetrahydro-2H-pyrazolo[4,3-c]pyridine-3-carboxamide] | 3360 nM | > 10000 nM |
| CCn1nc(C(=O)NCc2ccc(-c3ncc[nH]3)cc2)c2c1CCN(c1ccc(C(=O)N(C)C)cn1)C2 [Example 21, N-(4-(1H-imidazol-2-yl)benzyl)-5-(5-(dimethylcarbamoyl)pyridin-2-yl)-1-ethyl-4,5,6,7-tetrahydro-1H-pyrazolo[4,3-c]pyridine-3-carboxamide] | 217 nM | 33 nM |
| CN(C)C(=O)Nc1ccc(CNC(=O)c2nnn3c2CN(c2ccc(C(=O)N(C)C)cn2)CC3)cc1 [Example 24, 5-(5-(dimethylcarbamoyl)pyridin-2-yl)-N-(4-(3,3-dimethylureido)benzyl)-4,5,6,7-tetrahydro-[1,2,3]triazolo[1,5-a]pyrazine-3-carboxamide] | 346 nM | 384 nM |
| CN(C)C(=O)Nc1ccc(CNC(=O)c2csc3c2CN(c2ccc(C(=O)N(C)C)cn2)CC3)cc1 [Example 25, 5-(5-(dimethylcarbamoyl)pyridin-2-yl)-N-(4-(3,3-dimethylureido)benzyl)-4,5,6,7-tetrahydrothieno[3,2-c]pyridine-3-carboxamide] | 1490 nM | 164 nM |
| CN(C)C(=O)Nc1ccc(CNC(=O)c2noc3c2CN(c2ccc(C(=O)N(C)C)cn2)CC3)cc1 [Example 28, 5-(5-(dimethylcarbamoyl)pyridin-2-yl)-N-(4-(3,3-dimethylureido)benzyl)-4,5,6,7-tetrahydroisoxazolo[4,5-c]pyridine-3-carboxamide] | 313 nM | 46 nM |
| CN(C)C(=O)Nc1ccc(CNC(=O)c2cnn3c2CN(c2ccc(C(=O)N(C)C)cn2)CC3)cc1 [Example 29, 5-(5-(dimethylcarbamoyl)pyridin-2-yl)-N-(4-(3,3-dimethylureido)benzyl)-4,5,6,7-tetrahydropyrazolo[1,5-a]pyrazine-3-carboxamide] | 878 nM | 2230 nM |

Stronger by IC50 [1], values ahead:

| IC50 [1] | EC50 (STAT6) | Compound |
| --- | --- | --- |
| 94 nM | 11 nM | CN(C)C(=O)Nc1ccc(CNC(=O)c2nn(C3CC3)c3c2CN(c2ccc(C(=O)N(C)C)cn2)CC3)cc1 [Example 10, 1-Cyclopropyl-5-(5-(dimethylcarbamoyl)pyridin-2-yl)-N-(4-(3,3-dimethylureido)benzyl)-4,5,6,7-tetrahydro-1H-pyrazolo[4,3-c]pyridine-3-carboxamide trifluoroacetate] |
| 93 nM | 16 nM | CN(C)C(=O)Nc1ccc(CNC(=O)c2nn(C)c3c2CN(c2ccc(-c4nccn4C)cn2)CC3)cc1 [Example 12, N-(4-(3,3-Dimethylureido)benzyl)-1-methyl-5-(5-(1-methyl-1H-imidazol-2-yl)pyridin-2-yl)-4,5,6,7-tetrahydro-1H-pyrazolo[4,3-c]pyridine-3-carboxamide] |
| 83 nM | 17 nM | CN(C)C(=O)Nc1ccc(CNC(=O)c2nc(C3CC3)n3c2CN(c2ccc(C(=O)N(C)C)cn2)CC3)cc1 [Example 13, 3-cyclopropyl-7-(5-(dimethylcarbamoyl)pyridin-2-yl)-N-(4-(3,3-dimethylureido)benzyl)-5,6,7,8-tetrahydroimidazo[1,5-a]pyrazine-1-carboxamide] |
| 72 nM | 6 nM | CN(C)C(=O)Nc1ccc(CNC(=O)c2nn(C3(C)CC3)c3c2CN(c2ccc(C(=O)N(C)C)cn2)CC3)cc1 [Example 20, 5-(5-(dimethylcarbamoyl)pyridin-2-yl)-N-(4-(3,3-dimethylureido)benzyl)-1-(1-methylcyclopropyl)-4,5,6,7-tetrahydro-1H-pyrazolo[4,3-c]pyridine-3-carboxamide] |
| 54 nM | 21 nM | CN(C)C(=O)Nc1ccc(CNC(=O)c2nc(C(F)(F)F)n3c2CN(c2ccc(C(=O)N(C)C)cn2)CC3)cc1 [Example 22, 7-(5-(dimethylcarbamoyl)pyridin-2-yl)-N-(4-(3,3-dimethylureido)benzyl)-3-(trifluoromethyl)-5,6,7,8-tetrahydroimidazo[1,5-a]pyrazine-1-carboxamide] |
| 62 nM | 6 nM | CCn1nc(C(=O)NCc2ccc(NC(=O)N(C)C)cc2)c2c1CCN(c1ccc(-c3ncnn3C)cn1)C2 [Example 23, N-(4-(3,3-Dimethylureido)benzyl)-1-ethyl-5-(5-(1-methyl-1H-1,2,4-triazol-5-yl)pyridin-2-yl)-4,5,6,7-tetrahydro-1H-pyrazolo[4,3-c]pyridine-3-carboxamide] |
| 91 nM | 6 nM | CC(C)n1nc(C(=O)NCc2ccc(NC(=O)N(C)C)cc2)c2c1CCN(c1ccc(-c3ncnn3C)cn1)C2 [Example 27, N-(4-(3,3-dimethylureido)benzyl)-1-isopropyl-5-(5-(1-methyl-1H-1,2,4-triazol-5-yl)pyridin-2-yl)-4,5,6,7-tetrahydro-1H-pyrazolo[4,3-c]pyridine-3-carboxamide] |
| 87 nM | 5 nM | CCn1nc(C(=O)NCc2ccc(NC(=O)N(C)C)cc2)c2c1CCN(c1ccc(-c3nccn3C)cn1)C2 [Example 30, N-(4-(3,3-Dimethylureido)benzyl)-1-ethyl-5-(5-(1-methyl-1H-imidazol-2-yl)pyridin-2-yl)-4,5,6,7-tetrahydro-1H-pyrazolo[4,3-c]pyridine-3-carboxamide] |
| 85 nM | 7 nM | CN(C)C(=O)Nc1ccc(CNC(=O)c2nn(CC(F)(F)F)c3c2CN(c2ccc(C(=O)N(C)C)cn2)CC3)cc1 [Example 31, 5-(5-(dimethylcarbamoyl)pyridin-2-yl)-N-(4-(3,3-dimethylureido)benzyl)-1-(2,2,2-trifluoroethyl)-4,5,6,7-tetrahydro-1H-pyrazolo[4,3-c]pyridine-3-carboxamide] |
